Reference: US20240226227A9, “BONE DISEASE TREATMENT” (The University of Birmingham, priority 2019, published 2024)

Tests used:
[1] = test system: osteoclasts and chondroclasts in tibia of wild-type mice; assay: TRAP staining of decalcified tibia sections, osteoclast and chondroclast counts; format: in vivo, mouse; details: daily injections for 14 days, vs PBS
Method: WT mice were housed in the Biomedical Services Unit at the University of Birmingham. Mice were used between 6 and 16 weeks of age. • 1. Homeostasis—Six-week-old male wild-type mice were treated with or without daily intraperitoneal (i.p.) injections of PEPITEM (300 μg) for 2 weeks. Mice were culled at 2 weeks to examine the effect of PEPITEM on bone homeostasis in young resting bones. • 2. Ovariectomy (model of age-related osteoporosis)—Twelve-week-old female wild-type mice were subjected to ovariectomy (OVX). Two weeks post-surgery, mice were treated with or without daily i.p. injections of PEPITEM (300 μg) for 2 weeks. Mice were culled at 2 weeks to obtain baseline bone loss measurements, or at 4 weeks to examine the effect of PEPITEM on OVX-induced bone loss. • 3. […]
For analysis of whole hind limb sections, Zen Blue software (ZEISS, Cambridge, UK) was used to break whole leg scans into regions of 20 μm by 20 μm, which were saved as images (JPEG) and opened on ImageJ™ (National institute of health (NIH); Maryland, USA). […] Osteoclasts were counted per region using ImageJ™ count maxima tool, where maxima were defined according to noise tolerance to neighboring squares and given as total number of osteoclasts per section. […]

[2] = test system: long bones of wild-type mice; assay: 3-point bending test of long bones ex vivo after treatment of mice; format: in vivo, mouse; details: daily injections for 14 days, vs PBS
Method: (§1) WT mice were housed in the Biomedical Services Unit at the University of Birmingham. Mice were used between 6 and 16 weeks of age. • 1. Homeostasis—Six-week-old male wild-type mice were treated with or without daily intraperitoneal (i.p.) injections of PEPITEM (300 μg) for 2 weeks. Mice were culled at 2 weeks to examine the effect of PEPITEM on bone homeostasis in young resting bones. • 2. Ovariectomy (model of age-related osteoporosis)—Twelve-week-old female wild-type mice were subjected to ovariectomy (OVX). Two weeks post-surgery, mice were treated with or without daily i.p. injections of PEPITEM (300 μg) for 2 weeks. Mice were culled at 2 weeks to obtain baseline bone loss measurements, or at 4 weeks to examine the effect of PEPITEM on OVX-induced bone loss. • 3. Analysis of murine bone parameters—Histomorphometry analysis was performed on long bones (femur; tibia) and/or spine to determine the effects of PEPITEM on the structural architecture of the tissue, cellular distribution and bone volume, including TRAP and Toluidine blue staining for osteoclasts and osteoblasts respectively. For information on these staining methods, see Das, P. et al., PNAS, 2018, 115(43), E10137-E10146 and Waddington, R. J. and Sloan, A. J. eds. Tissue Engineering and Regeneration in Dentistry: Current Strategies. West Sussex: John Wiley & Sons. Femurs were subjected to a 3-point bending test using a Bose 5500 (Bose) to determine the stiffness of the bones and the force required to fracture the bone. For more information on the 3-point bending test method, see Huesa, C. et al., Bone, 2011, 48(5), 1066-1074.

[3] = test system: long bones of wild-type mice; assay: Bone homeostasis in young healthy mice, microCT of long bones; format: in vivo, mouse; details: daily i.p. 300 μg for 14 days, vs PBS
Method: (§2) All experiments were performed in accordance with UK Home Office regulations. For the animal studies, in each experiment wild-type (WT) animals were allocated at random to different experimental groups. Importantly, mice from the same litter were randomly distributed amongst the experimental groups, and where possible, they were equally distributed amongst experimental groups. Injections of peptide were carried out at the same time of day, with identical reagents when possible. The investigators were not blinded to allocation during experiments and outcome assessment. All samples analyzed were included in the study.
as §1

[4] = test system: murine osteoblast cell line MC3T3; assay: Alizarin red mineralization assay, MC3T3 osteoblast cell line; format: cell-based, mouse; details: MC3T3 cells, 10 ng/ml PEPITEM in differentiation media, up to 21 days, vs untreated cells
Method: The spontaneously immortalised murine MC3T3-E1 cell line (ATCC, England, UK, CRL-2593) was brought up from liquid nitrogen and cultured in basal media made up of: αMEM media (Sigma-Aldrich™, St. Louis, MO, USA, M8042) supplemented with 2 mM L-Glutamine, 100 U/ml Penicillin and 100 μg/ml Streptomycin (all from Sigma-Aldrich™, G1146) and fetal bovine serum [(FBS) Biosera™, East Sussex, UK, FB1001]. […] Mineralisation was assessed using an Alizarin red staining quantification assay and ALP activity.
(§3) Osteoblasts were cultured in mineralization differentiation media in the presence or absence of PEPITEM (10 ng/ml) over a 21-day period, dependent on cell source. Mineralization was assessed by quantifying the amount of alizarin red (nM) or the level of alkaline phosphate activity (absorbance at 405 nm) per condition.
(§4) Alizarin red analysis was performed following the manufacturer's instructions (Caltag+Medsystems™, Buckingham, UK, SC8678). […] Alizarin red was quantified using ImageJ™ (NIH) by removing backing, converting to a binary image and measuring area fraction stained. […]

[5] = test system: ovariectomized wild-type mice; assay: Ovariectomy model of age-related osteoporosis, microCT of long bones; format: in vivo, mouse; details: OVX mice
Method: as §2, §1

[6] = test system: primary human osteoblasts; assay: Alkaline phosphatase activity (mineralization), primary human osteoblasts; format: cell-based; details: 10 ng/ml PEPITEM, vs untreated cells, paired t-test
Method: Human osteoarthritis subchondral joint tissue was obtained at the time of total knee and hip joint replacement operations from the Royal Orthopaedic Hospital (Birmingham). To isolate primary osteoblasts, cartilage was removed from the femoral condyles and tibial plateaus and cut into 2 mm^2 pieces. Samples were kept in media and cleaned of fat. Media contains DMEM (Sigma™, D6546), FCS (10%), GPS (1%), Non-essential amino acid (1%; Sigma™, M7145), β-glycerophosphate (2 mM; Sigma™—G9422) and L-Ascorbic acid (50 μg/ml; Sigma™, A5960). Bone chips were placed in T75 flasks in 10 ml of media, replacing media every 2-3 days. Main outgrowth occurs between 10-14 days, after which chips were placed in new flasks. […]
as §3
To measure alkaline phosphatase activity, cells were washed in PBS before being lysed in 100 μl of RIPA buffer (Thermo Fisher™, R0278) for 15 minutes on ice. […] The plate was wrapped in foil and left to run for 45 minutes at 37° C. in an incubated shaker (SciQuip™; Shropshire, UK) before being quantified using a Synergy HT plate reader (BioTek™) with absorbance set at 405 nm.

[7] = test system: primary murine osteoblast cells; assay: Alizarin red mineralization assay, primary murine osteoblasts; format: cell-based, mouse; details: 10 ng/ml PEPITEM, vs untreated cells, paired t-test
Method: Day 3-5 WT mouse pups were culled via decapitation and heads were washed briefly in 70% ethanol and kept hydrated in αMEM media supplemented with 2 mM L-Glutamine, 100 U/ml Penicillin and 100 μg/ml Streptomycin. Skin was removed from around calvaria using forceps, and the calvaria was dissected out and cleaned of any contaminating tissue. Calvaria were added to αMEM media supplemented with 1 mg/ml of collagenase d (Roche™, Basel, Switzerland, COLLD-RO). Tubes were then agitated at 37° C. for 10 minutes and the media discarded. αMEM media supplemented with 1 mg/ml of collagenase d was again added to calvaria and shaken at 37° C. for 30 minutes. […] Cells on ice were then spun down at 300 g for 4 minutes, resuspended in 1 ml of Basal media and counted using a haemocytometer. […]
as §3, §4

[8] = test system: vertebra of wild-type mice; assay: Bone homeostasis in young healthy mice, microCT of vertebra; format: in vivo, mouse; details: daily i.p. 300 μg for 14 days, vs PBS
Method: as §2, §1

[9] = long bones, daily i.p. 300 μg for 2 weeks from 2 weeks post surgery, vs untreated

## PEPITEM (SVTEQGAELSNEER; listed as Homo sapiens)
[1]
  number of chondroclasts per μm: reduced
  number of osteoclasts per mm^2 within the tibia: significantly reduces
[2]
  bending force: significantly increased
  fracture force: significantly increased
  stiffness of the bone: significantly increased
[3]
  bone volume to trabecular bone volume ratio (BV/TV): significantly increased
  trabecular number: significantly increased
  trabecular separation: decreased
  trabecular thickness: significantly increased
[4]
  production of bone mineral (Alizarin Red staining): stimulates the production of bone mineral
[5]; 4 weeks post surgery, compared to 2-week untreated (baseline) mice
  additional bone loss after ovariectomy: prevented additional bone loss
[5]; [9]
  bone volume to trabecular bone volume ratio (BV/TV): significantly increased
  trabecular number: significantly increased
  trabecular separation: decreased
  trabecular thickness: significantly increased
[6]
  osteoblast mineralization (alkaline phosphatase activity): significantly increased
[7]
  osteoblast mineralization (Alizarin Red staining): significantly increased
[8]
  bone volume to trabecular bone volume ratio (BV/TV): significantly increased
  trabecular number: significantly increased
  trabecular separation: decreased
  trabecular thickness: significantly increased
